pIC50: −log10 of the molar value. Active and inactive are the calls of the source. The rule behind the calls is not given here.
Assays:
[1] = Cytotoxicity against human HK-2 cells incubated for 72 hrs by MTT assay; assay type: toxicity, cell-based
HK-2 [2] = assay: Protection against cisplatin-induced nephrotoxicity in human HK-2 cells assessed as cell viability at 1 uM preincubated with compound for 2 hrs followed by cisplatin induction and measured after 72 hrs by MTT assay (reference value: 45.1 +/- 3.2%); assay type: functional; details: time 74 hrs, read-out: Activity
HK-2 [3] = assay: Protection against cisplatin-induced nephrotoxicity in human HK-2 cells assessed as cell viability at 5 uM preincubated with compound for 2 hrs followed by cisplatin induction and measured after 72 hrs by MTT assay (reference value: 45.1 +/- 3.2%); assay type: functional; details: time 74 hrs, read-out: Activity
HK-2 [4] = assay: Protection against cisplatin-induced nephrotoxicity in human HK-2 cells assessed as cell viability at 10 uM preincubated with compound for 2 hrs followed by cisplatin induction and measured after 72 hrs by MTT assay (reference value: 45.1 +/- 3.2%); assay type: functional; details: time 74 hrs, read-out: Activity
HK-2 [5] = assay: Protection against cisplatin-induced nephrotoxicity in human HK-2 cells at 5 to 10 uM preincubated with compound for 2 hrs followed by cisplatin induction and measured after 72 hrs by MTT assay; assay type: functional, cell-based; details: dose 5-10 µM, time 74.0 hrs
HK-2 [6] = assay: Protection against cisplatin-induced nephrotoxicity in human HK-2 cells assessed as cell viability at 1 uM preincubated with compound for 2 hrs followed by cisplatin induction and measured after 72 hrs by MTT assay (reference value: 37.37 +/- 1.35%); assay type: functional; details: time 74 hrs, read-out: Activity
HK-2 [7] = assay: Protection against cisplatin-induced nephrotoxicity in human HK-2 cells assessed as cell viability at 5 uM preincubated with compound for 2 hrs followed by cisplatin induction and measured after 72 hrs by MTT assay (reference value: 37.37 +/- 1.35%); assay type: functional; details: time 74 hrs, read-out: Activity
HK-2 [8] = assay: Protection against cisplatin-induced nephrotoxicity in human HK-2 cells assessed as cell viability at 10 uM preincubated with compound for 2 hrs followed by cisplatin induction and measured after 72 hrs by MTT assay (reference value: 37.37 +/- 1.35%); assay type: functional; details: time 74 hrs, read-out: Activity
HK-2 [9] = assay: Protection against cisplatin-induced nephrotoxicity in human HK-2 cells preincubated with compound for 2 hrs followed by cisplatin induction and measured after 72 hrs by MTT assay; assay type: functional, cell-based; details: dose 1-10 µM, time 74.0 hrs
HK-2 [10] = assay: Protection against cisplatin-induced nephrotoxicity in human HK-2 cells increase in viability at 10 uM preincubated with compound for 2 hrs followed by cisplatin induction and measured after 72 hrs by MTT assay (reference value: 45.1%); assay type: functional; details: time 74 hrs
[11] = target: T1, Tyrosine-protein phosphatase non-receptor type 1 (Homo sapiens, UniProt P18031); assay: Inhibition of PTP1B (unknown origin)
T1 sequence (P18031 whole entry): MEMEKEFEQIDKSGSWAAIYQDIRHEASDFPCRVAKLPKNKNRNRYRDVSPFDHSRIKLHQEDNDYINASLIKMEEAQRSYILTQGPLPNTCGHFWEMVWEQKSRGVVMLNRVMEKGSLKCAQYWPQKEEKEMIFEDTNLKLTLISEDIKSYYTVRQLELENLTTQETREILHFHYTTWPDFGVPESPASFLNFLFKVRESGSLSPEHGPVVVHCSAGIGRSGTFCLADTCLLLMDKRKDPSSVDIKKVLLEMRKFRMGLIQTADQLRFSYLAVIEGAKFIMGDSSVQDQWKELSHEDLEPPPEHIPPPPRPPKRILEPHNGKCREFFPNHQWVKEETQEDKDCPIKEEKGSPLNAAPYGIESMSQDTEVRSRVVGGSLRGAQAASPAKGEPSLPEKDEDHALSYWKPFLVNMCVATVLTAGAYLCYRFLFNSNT

[12] = Antitumor activity against cisplatin-induced mouse Lewis lung carcinoma cell line xenografted C57BL/6J mouse assessed as reduction in tumor mass at 50 mg/kg, po preadministered with compound for 3 days followed by cisplatin addition on day 3 and measured 72 hrs post cisplatin administration; assay type: functional; set-up: scale not given: the % may be the effect or the level left; details: time 6 day

For `C/C1=C\CC(C)(C)/C=C/CC2(C)Oc3c(C=O)c(O)c(C(=O)c4ccccc4)c(O)c3CC2CC1` (stereo not given), the IC50 at 72 h [1] was 7.72 µM, the viability at 1 µM (HK-2 [2]) was 61.1% and the viability at 5 µM (HK-2 [3]) was 66.8%. The viability at 10 µM (HK-2 [4]) was 42.7%.
With `COc1c2c(c(C(=O)O)c(OC)c1C(=O)c1ccccc1)OC1(C)C/C=C/C(C)(C)C/C=C(\C)CCC1C2` (stereo not given) the IC50 at 72 h [1] was > 10 µM, the viability at 1 µM (HK-2 [2]) was 48.2% and the viability at 5 µM (HK-2 [3]) was 64.4%. The viability at 10 µM (HK-2 [4]) was 68.2% and the Activity (HK-2 [5]) was “Active”.
With `COc1c(CO)c(OC)c(C(=O)c2ccccc2)c2c1CC1CC/C(C)=C/CC(C)(C)/C=C/CC1(C)O2` (stereo not given) the IC50 at 72 h [1] was > 10 µM, the viability at 1 µM (HK-2 [2]) was 45.7% and the viability at 5 µM (HK-2 [3]) was 80.8%. It also gave a viability at 10 µM (HK-2 [4]) of 95.5%, a viability at 1 µM (HK-2 [6]) of 39.1% and a viability at 5 µM (HK-2 [7]) of 50.5%. For the same compound, the viability at 10 µM (HK-2 [8]) was 61.6%, the Activity (HK-2 [5]) was “Active” and the Activity (HK-2 [9]) was “Dose-Dependent Effect”. For the same compound, the Activity (HK-2 [10]) was >90%.
Work on `C[C@@H]1CC[C@@H]([C@@H](c2ccccc2)c2c(O)c(C=O)c(O)c(C=O)c2O)[C@]2(C)CC[C@@H](C(C)(C)O)C=C12` yielded a pIC50 [11] of 5.30.
For `COc1c(CO)c2c(c(OC)c1C(=O)c1ccccc1)CC(C)C(C)(C)O2` (stereo not given), the IC50 at 72 h [1] was > 10 µM, the viability at 1 µM (HK-2 [6]) was 40.1% and the viability at 5 µM (HK-2 [7]) was 45.6%. The viability at 10 µM (HK-2 [8]) was 48.4% and the Activity (HK-2 [5]) was “Active”.
In the case of `C/C1=C\CC(C)(C)/C=C/CC2(C)Oc3c(c(O)c(C=O)c(O)c3C(=O)c3ccccc3)CC2CC1` (stereo not given), the IC50 at 72 h [1] was > 10 µM, the viability at 1 µM (HK-2 [2]) was 60.3% and the viability at 5 µM (HK-2 [3]) was 70.2%. The viability at 10 µM (HK-2 [4]) was 67.1%.
Compound `NCCCNCCSP(=O)(O)O` [AMIFOSTINE] has an Activity [12] of 28.2%.
For `CC12CCCC1Cc1c(O)c(C=O)c(O)c(C(=O)c3ccccc3)c1O2` (stereo not given), the IC50 at 72 h [1] was > 10 µM, the viability at 1 µM (HK-2 [6]) was 41.5% and the viability at 5 µM (HK-2 [7]) was 49.6%. For the same compound, the viability at 10 µM (HK-2 [8]) was 51.7% and the Activity (HK-2 [5]) was “Active”.
For `COc1c(CN2CCN(C)CC2)c(OC)c(C(=O)c2ccccc2)c2c1CC1CC/C(C)=C/CC(C)(C)/C=C/CC1(C)O2` (stereo not given), the IC50 at 72 h [1] was 9.1 µM, the viability at 1 µM (HK-2 [2]) was 46.3% and the viability at 5 µM (HK-2 [3]) was 57.9%. The viability at 10 µM (HK-2 [4]) was 47.8%.
Compound `C=C1CC[C@@H]2[C@H](c3ccccc3)c3c(O)c(C=O)c(O)c(C=O)c3O[C@@]2(C)CC[C@H]2[C@H]1CC2(C)C` has a pIC50 [11] of 5.30.
For `COc1c2c(c(CN3CCN(C)CC3)c(OC)c1C(=O)c1ccccc1)OC1(C)C/C=C/C(C)(C)C/C=C(\C)CCC1C2` (stereo not given), the IC50 at 72 h [1] was 9.5 µM, the viability at 1 µM (HK-2 [2]) was 49.7% and the viability at 5 µM (HK-2 [3]) was 59.6%. The viability at 10 µM (HK-2 [4]) was 64.2% and the Activity (HK-2 [5]) was “Active”.
With `CC1(C)[C@H]2[C@H]3[C@@H](CC[C@]3(C)[C@@H](c3ccccc3)c3c(O)c(C=O)c(O)c(C=O)c3O)[C@](C)(O)CC[C@H]21` the pIC50 [11] was 5.30.
In the case of `COc1c(C=O)c2c(c(OC)c1C(=O)c1ccccc1)CC1CC/C(C)=C/CC(C)(C)/C=C/CC1(C)O2` (stereo not given), the IC50 at 72 h [1] was > 10 µM, the viability at 1 µM (HK-2 [2]) was 70.4% and the viability at 5 µM (HK-2 [3]) was 79.2%. For the same compound, the viability at 10 µM (HK-2 [4]) was 67.9% and the Activity (HK-2 [5]) was “Active”.
In the case of `COc1c(CO)c2c(c(OC)c1C(=O)c1ccccc1)CC1CC/C(C)=C/CC(C)(C)/C=C/CC1(C)O2` (stereo not given), the IC50 at 72 h [1] was > 10 µM, the viability at 1 µM (HK-2 [2]) was 51.2% and the viability at 5 µM (HK-2 [3]) was 73.6%. The viability at 10 µM (HK-2 [4]) was 83.3% and the Activity (HK-2 [5]) was “Active”.
In the case of `COc1c2c(c(C(=O)c3ccccc3)c(OC)c1C(=O)O)OC1(C)C/C=C/C(C)(C)C/C=C(\C)CCC1C2` (stereo not given), the IC50 at 72 h [1] was > 10 µM, the viability at 1 µM (HK-2 [2]) was 48.4% and the viability at 5 µM (HK-2 [3]) was 60.4%. For the same compound, the viability at 10 µM (HK-2 [4]) was 65% and the Activity (HK-2 [5]) was “Active”.
For `CC12CCCCC1Cc1c(O)c(C=O)c(O)c(C(=O)c3ccccc3)c1O2` (stereo not given), the IC50 at 72 h [1] was > 10 µM, the viability at 1 µM (HK-2 [6]) was 33.6% and the viability at 5 µM (HK-2 [7]) was 41.3%. It also gave a viability at 10 µM (HK-2 [8]) of 42.5%.

Reference: ChEMBL document CHEMBL5550222, “Synthesis and Biological Evaluation of Novel Psidium Meroterpenoid Derivatives against Cisplatin-Induced Acute Kidney Injury” (J Med Chem, 2024)
